Reference: patent US11325936B2, “Sialidase inhibitors and preparation thereof” (The Regents of the University of California, priority 2017, dated 2022)

How the values were obtained:
SpNanB = SpNanB (Streptococcus pneumoniae serotype 4, UniProt Q54727, E68D/K536E/K577E/N393D/S59P); assay: Substrate specificity of SpNanB; details: pNP-tagged α2-3-linked sialosides
SpNanC = assay: Substrate specificity assay of SpNanC; details: for Percentage conversion (%) by SpNanC: sialoside substrate 0.3 mM, SpNanC (2 μg), Tris-HCl pH 7.0, 30 min, 37° C.; for Cleavage by SpNanC, yield: reactions using 3 μg of SpNanC

Sequence of SpNanB (Q54727 30-697 S59P/E68D/N393D/K536E/K577E): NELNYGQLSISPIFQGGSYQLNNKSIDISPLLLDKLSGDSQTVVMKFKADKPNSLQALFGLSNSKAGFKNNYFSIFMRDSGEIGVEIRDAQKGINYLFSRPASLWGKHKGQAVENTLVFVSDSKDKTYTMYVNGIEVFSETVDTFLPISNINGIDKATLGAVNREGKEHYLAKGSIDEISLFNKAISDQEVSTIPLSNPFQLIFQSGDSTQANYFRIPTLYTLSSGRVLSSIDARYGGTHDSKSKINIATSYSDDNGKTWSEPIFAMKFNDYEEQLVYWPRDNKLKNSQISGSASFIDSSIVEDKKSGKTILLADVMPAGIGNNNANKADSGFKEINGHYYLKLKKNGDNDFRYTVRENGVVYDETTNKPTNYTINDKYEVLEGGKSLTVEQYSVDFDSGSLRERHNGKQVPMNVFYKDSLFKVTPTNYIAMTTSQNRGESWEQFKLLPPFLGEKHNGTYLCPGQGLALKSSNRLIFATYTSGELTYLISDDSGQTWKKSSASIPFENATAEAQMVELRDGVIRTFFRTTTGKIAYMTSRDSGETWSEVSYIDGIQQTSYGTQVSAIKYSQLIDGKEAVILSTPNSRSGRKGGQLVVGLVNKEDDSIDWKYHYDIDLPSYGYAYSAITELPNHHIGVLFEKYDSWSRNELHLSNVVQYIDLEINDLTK

SMILES | Recognition by SpNanB (substrate specificity) (SpNanB) | Percentage conversion (%) by SpNanC (SpNanC) [%] | Cleavage by SpNanC, yield (SpNanC) [%]
O=C(O)[C@@]1(O[C@H]2[C@@H](O)[C@@H](CO)O[C@@H](Oc3ccc([N+](=O)[O-])cc3)[C@@H]2O)C[C@H](O)[C@@H](F)[C@H]([C@H](O)[C@H](O)CO)O1 [Kdn5Fα2-3GalβpNP] | − (− represents <20% conversion) | 0.48 ± 0.00 | –
[N-]=[N+]=NC1C(O)CC(OC2C(O)C(CO)OC(Oc3ccc([N+](=O)[O-])cc3)C2O)(C(=O)O)OC1C(O)C(O)CO (stereo not drawn) [Kdn5N3α2-3GalβpNP] | − (− represents <20% conversion) | 0.32 ± 0.45 | –
CO[C@H]1[C@H]([C@H](O)[C@H](O)CO)O[C@](O[C@H]2[C@@H](O)[C@@H](CO)O[C@@H](Oc3ccc([N+](=O)[O-])cc3)[C@@H]2O)(C(=O)O)C[C@@H]1O [Kdn5OMe α2-3GalβpNP, Kdn5OMeα2-3GalβpNP] | − (− represents <20% conversion) | 1.53 ± 1.02 | –
O=C(O)C1(OC2C(O)C(CO)OC(Oc3ccc([N+](=O)[O-])cc3)C2O)CC(O)CC(C(O)C(O)CO)O1 (centres unmarked) [Kdn5deoxyα2-3GalβpNP] | − (− represents <20% conversion) | 5.31 ± 0.23 | –
O=C(O)[C@]1(O[C@H]2[C@@H](O)[C@@H](CO)O[C@@H](Oc3ccc([N+](=O)[O-])cc3)[C@@H]2O)C[C@H](O)[C@@H](O)[C@H]([C@H](F)[C@H](O)CO)O1 [Kdn7Fα2-3GalβpNP] | − (− represents <20% conversion) | 0.56 ± 0.11 | –
[N-]=[N+]=NC(C(O)CO)C1OC(OC2C(O)C(CO)OC(Oc3ccc([N+](=O)[O-])cc3)C2O)(C(=O)O)CC(O)C1O (stereo not drawn) [Kdn7N3α2-3GalβpNP] | − (− represents <20% conversion) | 4.50 ± 0.45 | –
CO[C@@H]([C@@H]1O[C@](O[C@H]2[C@@H](O)[C@@H](CO)O[C@@H](Oc3ccc([N+](=O)[O-])cc3)[C@@H]2O)(C(=O)O)C[C@H](O)[C@H]1O)[C@H](O)CO [Kdn7OMeα2-3GalβpNP] | − (− represents <20% conversion) | 23.4 ± 3.3 | 23
O=C(O)C1(OC2C(O)C(CO)OC(Oc3ccc([N+](=O)[O-])cc3)C2O)CC(O)C(O)C(CC(O)CO)O1 (centres unmarked) [Kdn7deoxyα2-3GalβpNP] | − (− represents <20% conversion) | 10.1 ± 0.0 | 10
O=C(O)C1(OC2C(O)C(CO)OC(Oc3ccc([N+](=O)[O-])cc3)C2O)CC(O)C(O)C(C(O)C(O)CF)O1 (centres unmarked) [Kdn9Fα2-3GalβpNP] | − (− represents <20% conversion) | 3.70 ± 1.14 | –
COCC(O)C(O)C1OC(OC2C(O)C(CO)OC(Oc3ccc([N+](=O)[O-])cc3)C2O)(C(=O)O)CC(O)C1O (centres unmarked) [Kdn9OMeα2-3GalβpNP] | − (− represents <20% conversion) | 4.02 ± 1.36 | –
O=C(O)[C@]1(O[C@H]2[C@@H](O)[C@@H](CO)O[C@@H](Oc3ccc([N+](=O)[O-])cc3)[C@@H]2O)C[C@H](O)[C@@H](O)[C@H]([C@H](O)[C@H](O)CO)O1 [Kdnα2-3GalβpNP] | − (− represents <20% conversion) | 4.50 ± 0.45 | –
CC(=O)NC1C(O)CC(OC2C(O)C(CO)OC(Oc3ccc([N+](=O)[O-])cc3)C2O)(C(=O)O)OC1C(F)C(O)CO (centres unmarked) [Neu5Ac7Fα2-3GalβpNP] | + (+ represents >80% conversion) | 91.0 ± 4.3 | –
